Our source for the TGI values is PubChem BioAssay (NCI).

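Results reflect a 48-hour exposure of cells in 96-well plates to compound at five concentrations. At the TGI there is no net growth.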

Some test systems named below: UO-31 renal; OVCAR-8 ovarian; SF-268 CNS; RXF 393 renal; CCRF-CEM leukemia; HCC-2998 colon; SK-MEL-5 melanoma; SF-295 CNS; M14 melanoma; SK-OV-3 ovarian; OVCAR-4 ovarian; MALME-3M melanoma; OVCAR-5 ovarian; K-562 leukemia; MOLT-4 leukemia; SNB-75 CNS; NCI-H226 lung; PC-3 prostate; MCF7 breast.
Test in all cases: NCI anticancer screen, dose series, 48 h

As for `CC(=O)Nc1ccc(S(=O)(=O)NN(C)S(=O)(=O)c2ccc(C)cc2)cc1`, the TGI with UO-31 renal, in the experiment on OVCAR-8 ovarian, with SF-268 CNS, in the experiment with RXF 393 renal, with CCRF-CEM leukemia and with HCC-2998 colon was more than 100 µM in each case. Also, the TGI with SK-MEL-5 melanoma, with SF-295 CNS, in the experiment with M14 melanoma, in the experiment on SK-OV-3 ovarian, in the experiment with OVCAR-4 ovarian and in the experiment on MALME-3M melanoma was more than 100 µM each time. The TGI in the experiment on OVCAR-5 ovarian, in the experiment with K-562 leukemia and in the experiment on MOLT-4 leukemia was more than 100 µM in each case.

As to `COC(=O)c1ccc(C=C(C#N)C#N)cc1`, the TGI with OVCAR-8 ovarian is 56.5 µM; with SF-268 CNS it was 59.1 µM; with SNB-75 CNS, 82.5 µM; with CCRF-CEM leukemia, 51.9 µM; in the experiment on HCC-2998 colon, 32.9 µM; with SK-MEL-5 melanoma, 33.1 µM. In addition, the TGI in the experiment on SF-295 CNS is 91.6 µM; in the experiment on M14 melanoma it was 32.7 µM; in the experiment on SK-OV-3 ovarian, more than 100 µM; in the experiment with OVCAR-4 ovarian it was 47 µM; with NCI-H226 lung, 80.4 µM; in the experiment with MALME-3M melanoma, 39.6 µM. Also, the TGI with OVCAR-5 ovarian was more than 100 µM; in the experiment with K-562 leukemia, 62.8 µM; in the experiment on MOLT-4 leukemia, 65.7 µM.

As for `NC(CCCCNCc1ccccc1O)C(=O)O` (centres undefined), the TGI in the experiment with UO-31 renal, in the experiment on OVCAR-8 ovarian, in the experiment on SF-268 CNS, in the experiment with SNB-75 CNS, in the experiment on CCRF-CEM leukemia and in the experiment on HCC-2998 colon was more than 100 µM in each case. Also, the TGI with SK-MEL-5 melanoma, in the experiment with SF-295 CNS, in the experiment on M14 melanoma, with SK-OV-3 ovarian, in the experiment on OVCAR-4 ovarian and in the experiment with NCI-H226 lung was more than 100 µM each time. Further, the TGI with MALME-3M melanoma, in the experiment on OVCAR-5 ovarian, in the experiment with K-562 leukemia and with MOLT-4 leukemia was more than 100 µM each time.

For the compound `O=C(CC(=O)c1ccccc1)C(=O)Nc1ccc(Cl)cc1`, the TGI with UO-31 renal, with OVCAR-8 ovarian, with SF-268 CNS, in the experiment on RXF 393 renal, with SNB-75 CNS and in the experiment with CCRF-CEM leukemia was more than 100 µM each time. The TGI in the experiment on HCC-2998 colon, in the experiment with SK-MEL-5 melanoma, with SF-295 CNS, with M14 melanoma, with SK-OV-3 ovarian and in the experiment with OVCAR-4 ovarian was more than 100 µM in each case. In addition, the TGI in the experiment on NCI-H226 lung, in the experiment on MALME-3M melanoma, in the experiment on OVCAR-5 ovarian, with K-562 leukemia and in the experiment on MOLT-4 leukemia was more than 100 µM in each case.

As to `Nc1[nH]c(=O)[nH]c(=O)c1Cc1cccc(Cl)c1`, the TGI in the experiment with UO-31 renal, in the experiment on OVCAR-8 ovarian, in the experiment on SF-268 CNS, in the experiment with RXF 393 renal, in the experiment with SNB-75 CNS and in the experiment with HCC-2998 colon was more than 100 µM each time. The TGI with SF-295 CNS, in the experiment with M14 melanoma, with SK-OV-3 ovarian, in the experiment on OVCAR-4 ovarian, with NCI-H226 lung and with MALME-3M melanoma was more than 100 µM in each case. The TGI in the experiment with OVCAR-5 ovarian is more than 100 µM; in the experiment on PC-3 prostate it was more than 100 µM; with K-562 leukemia it was more than 100 µM; with MCF7 breast, 48.8 µM.

`COc1ccc(/C=C/c2cc(OC)c(OCc3ccccc3)c(OC)c2)cc1`: the TGI in the experiment with UO-31 renal, in the experiment on OVCAR-8 ovarian, in the experiment with SF-268 CNS, in the experiment on SNB-75 CNS, in the experiment with CCRF-CEM leukemia and with HCC-2998 colon was more than 100 µM in each case. Moreover, the TGI is more than 100 µM with M14 melanoma; more than 100 µM with SK-OV-3 ovarian; more than 100 µM in the experiment on OVCAR-4 ovarian; more than 100 µM in the experiment on NCI-H226 lung; more than 100 µM in the experiment on MALME-3M melanoma; 94.5 µM with OVCAR-5 ovarian. Also, the TGI in the experiment with K-562 leukemia and with MOLT-4 leukemia was more than 100 µM in each case.

As for `C/C(N=NS(=O)(=O)c1ccc(C)cc1)=C1\C=CC=CN1O`, the TGI in the experiment with UO-31 renal, in the experiment on OVCAR-8 ovarian, in the experiment on SF-268 CNS, in the experiment with SNB-75 CNS, in the experiment on CCRF-CEM leukemia and in the experiment with HCC-2998 colon was more than 100 µM throughout. In addition, the TGI in the experiment with SK-MEL-5 melanoma, in the experiment on SF-295 CNS, with M14 melanoma, in the experiment on SK-OV-3 ovarian, with OVCAR-4 ovarian and in the experiment with OVCAR-5 ovarian was more than 100 µM each time. The compound further yielded a TGI in the experiment with MOLT-4 leukemia of more than 100 µM.

In the case of `CN(C)C(F)=PC(F)(F)F` (centres undefined), the TGI in the experiment on UO-31 renal, in the experiment on OVCAR-8 ovarian, in the experiment on SF-268 CNS, in the experiment with RXF 393 renal, with SNB-75 CNS and in the experiment on CCRF-CEM leukemia was more than 100 µM throughout. Besides, the TGI with HCC-2998 colon, in the experiment on SK-MEL-5 melanoma, in the experiment with SF-295 CNS, in the experiment on M14 melanoma, with SK-OV-3 ovarian and in the experiment on OVCAR-4 ovarian was more than 100 µM throughout. Also, the TGI in the experiment on NCI-H226 lung, in the experiment with MALME-3M melanoma, in the experiment on OVCAR-5 ovarian, in the experiment on K-562 leukemia and with MOLT-4 leukemia was more than 100 µM in each case.

`CSc1ccc2c(cc1=O)C(NC(=O)c1ccc(C#N)cc1)CCc1cc(O)c(O)c(O)c1-2` (centres undefined): the TGI with UO-31 renal is more than 100 µM; with OVCAR-8 ovarian it was 99.7 µM; with SF-268 CNS, more than 100 µM; in the experiment with SNB-75 CNS, 14.6 µM; in the experiment with CCRF-CEM leukemia it was 57.8 µM; with HCC-2998 colon, 81.6 µM. The TGI with SK-MEL-5 melanoma turned out to be 71.5 µM; in the experiment on SF-295 CNS, 74.7 µM; in the experiment with M14 melanoma, 89.6 µM; in the experiment on SK-OV-3 ovarian, 63.7 µM; in the experiment with OVCAR-4 ovarian, 27.2 µM; in the experiment on NCI-H226 lung, 59.1 µM. Moreover, the TGI is more than 100 µM in the experiment on MALME-3M melanoma, more than 100 µM in the experiment with OVCAR-5 ovarian, 25.1 µM with K-562 leukemia and 59 µM with MOLT-4 leukemia.
